Source: the supplement of paper PMC11061612

Experiments:
Assay in all cases: Bliss excess, mean over the matrix (fraction); higher = more synergy
[1] = test system: 23132-87 (Gastric Carcinoma)
Procedure, shortened: (§1)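 Cell lines in DMEM/F12 or RPMI with 10% FBS were plated in 1536-well plates, held 24 hours at 37°C, 5% CO2, then given two-drug dose matrices for 72 hours (DMSO typically 0.2%). Viability was read by CellTiter-Glo 2.0 luminescence and scaled as inhibition from 0 (vehicle wells) to 1 (blank wells). Combination Emax is the second-highest inhibition in the matrix; Bliss excess is observed combination effect minus expected EA + EB − EA·EB, EA and EB being single-agent effects.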

WM278 (Melanoma) = test system: WM278 (Melanoma)
Procedure, shortened: as §1

[2] = test system: LXF-289 (Lung Adenocarcinoma)
Procedure, shortened: as §1

[3] = test system: LB996-RCC (Kidney Carcinoma)
Procedure, shortened: as §1

WM793B (Melanoma) = test system: WM793B (Melanoma)
Procedure, shortened: as §1

[4] = test system: L-1236 (Hodgkin's Lymphoma)
Procedure, shortened: as §1

[5] = test system: HSC-39 (Gastric Carcinoma)
Procedure, shortened: as §1

[6] = test system: VAL (B-Cell Non-Hodgkin's Lymphoma)
Procedure, shortened: as §1

[7] = test system: RERF-LC-Sq1 (Squamous Cell Lung Carcinoma)
Procedure, shortened: as §1

[8] = test system: CAL-62 (Thyroid Gland Carcinoma)
Procedure, shortened: as §1

[9] = test system: CAL-120 (Breast Carcinoma)
Procedure, shortened: as §1

[10] = test system: TE-8 (Esophageal Squamous Cell Carcinoma)
Procedure, shortened: as §1

A2058 (Melanoma) = test system: A2058 (Melanoma)
Procedure, shortened: as §1

[11] = test system: REH (B-Lymphoblastic Leukemia)
Procedure, shortened: as §1

[12] = test system: GP5d (Colorectal Carcinoma)
Procedure, shortened: as §1

SF268 (Low Grade Glioma) = test system: SF268 (Low Grade Glioma)
Procedure, shortened: as §1

[13] = test system: LK-2 (Squamous Cell Lung Carcinoma)
Procedure, shortened: as §1

[14] = test system: PSN1 (Pancreatic Carcinoma)
Procedure, shortened: as §1

[15] = test system: SU-DHL-10 (B-Cell Non-Hodgkin's Lymphoma)
Procedure, shortened: as §1

[16] = test system: KE-37 (T-Lymphoblastic Leukemia)
Procedure, shortened: as §1

Compound	Bliss excess [1]	Bliss excess (WM278 (Melanoma))	Bliss excess [2]	Bliss excess [3]	Bliss excess (WM793B (Melanoma))	Bliss excess [4]	Bliss excess [5]	Bliss excess [6]	Bliss excess [7]	Bliss excess [8]	Bliss excess [9]	Bliss excess [10]	Bliss excess (A2058 (Melanoma))	Bliss excess [11]	Bliss excess [12]	Bliss excess (SF268 (Low Grade Glioma))	Bliss excess [13]	Bliss excess [14]	Bliss excess [15]	Bliss excess [16]
CCN(CCO)CCCOc1ccc2c(Nc3cc(CC(=O)Nc4cccc(F)c4)[nH]n3)ncnc2c1 [AZD2811] + O=C(c1cc(Cc2n[nH]c(=O)c3ccccc23)ccc1F)N1CCN(C(=O)C2CC2)CC1 [Olaparib] (first compound max 1 µM, 7x7, partner max 10 µM)	0.0143	-0.0107	0.0677	0.025	-0.015	-0.0232	0.0203	-0.0246	0.0361	0.0353	0.0019	-0.013	0.0093	0.0285	-0.0785	0.0105	-0.0329	-0.0206	-0.187	-0.0019
CC(=O)c1c(C)c2cnc(Nc3ccc(N4CCNCC4)cn3)nc2n(C2CCCC2)c1=O [Palbociclib] + Cn1cnc2c(F)c(Nc3ccc(Br)cc3Cl)c(C(=O)NOCCO)cc21 [Selumetinib] (first compound max 10 µM, 7x7, partner max 10 µM)	-0.0683	-0.0152	-0.0054	-0.0426	-0.0173	-0.0841	-0.0069	0.0029	-0.0488	0.0248	-0.0361	-0.0454	0.0131	-0.0229	-0.0062	-0.0269	0.0281	0.0226	0.0392	0.0207
Cc1cc2ncnn2cc1Nc1ncc2c(n1)n(C1CCOCC1)c(=O)n2C [AZD7648] + CCN(CCO)CCCOc1ccc2c(Nc3cc(CC(=O)Nc4cccc(F)c4)[nH]n3)ncnc2c1 [AZD2811] (first compound max 10 µM, 7x7, partner max 1 µM)	-0.0151	-0.0081	0.0397	-0.0098	-0.0038	-0.0089	-0.0371	-0.0799	-0.0048	0.0427	-0.0528	0.0717	0.01	-0.0541	0.0648	0.0023	-0.0328	-0.0218	-0.0765	-0.0002
Cn1cnc2c(F)c(Nc3ccc(Br)cc3Cl)c(C(=O)NOCCO)cc21 [Selumetinib] + C[C@@H]1COCCN1C2=NC(=NC(=C2)C3(CC3)[S@](=N)(=O)C)C4=C5C=CNC5=NC=C4 [AZD6738] (first compound max 10 µM, 7x7, partner max 10 µM)	-0.0627	0.0642	-0.0165	-0.0871	-0.0447	-0.041	-0.0391	-0.0657	0.0516	0.0142	0.0117	-0.0289	0.059	-0.0612	0.0209	-0.0382	0.0613	-0.0193	0.0181	0.0087
COc1nnc2ccc(N3CCC(c4ccc(OCCN5CCN(C)C(=O)[C@H]5C)cc4)CC3)nn12 [AZD5153] + CC1(C)CCC(CN2CCN(c3ccc(C(=O)NS(=O)(=O)c4ccc(NCC5CCOCC5)c([N+](=O)[O-])c4)c(Oc4cnc5[nH]ccc5c4)c3)CC2)=C(c2ccc(Cl)cc2)C1 [Venetoclax] (first compound max 1 µM, 7x7, partner max 1 µM)	-0.0697	-0.0188	-0.009	-0.0178	-0.0525	0.0177	0.0439	-0.0493	-0.0246	-0.0461	-0.0434	-0.0838	-0.0876	-0.136	-0.0741	-0.128	-0.0015	-0.0649	-0.0221	-0.0133
NC1(C(=O)N[C@@H](CCO)c2ccc(Cl)cc2)CCN(c2ncnc3[nH]ccc23)CC1 [Capivasertib] + Cn1cnc2c(F)c(Nc3ccc(Br)cc3Cl)c(C(=O)NOCCO)cc21 [Selumetinib] (first compound max 10 µM, 7x7, partner max 10 µM)	0.0687	0.0221	0.0075	0.0146	0.0402	0.0433	0.2	-0.0242	0.0005	0.0695	0.0219	-0.0324	0.108	-0.005	-0.0427	-0.0651	0.0313	-0.0255	0.0269	0.0803
CC1(C)CCC(CN2CCN(c3ccc(C(=O)NS(=O)(=O)c4ccc(NCC5CCOCC5)c([N+](=O)[O-])c4)c(Oc4cnc5[nH]ccc5c4)c3)CC2)=C(c2ccc(Cl)cc2)C1 [Venetoclax] + Cc1cc2ncnn2cc1Nc1ncc2c(n1)n(C1CCOCC1)c(=O)n2C [AZD7648] (first compound max 1 µM, 7x7, partner max 10 µM)	-0.0008	-0.0476	-0.0935	-0.0258	0.0156	-0.0274	-0.0289	0.012	-0.0268	-0.025	-0.0338	-0.0121	0.007	0.0108	-0.0119	-0.0146	0.0102	-0.0534	-0.0139	0.0325
Cc1cc2ncnn2cc1Nc1ncc2c(n1)n(C1CCOCC1)c(=O)n2C [AZD7648] + C[C@@H]1COCCN1C2=NC(=NC(=C2)C3(CC3)[S@](=N)(=O)C)C4=C5C=CNC5=NC=C4 [AZD6738] (first compound max 10 µM, 7x7, partner max 10 µM)	-0.0027	0.0112	0.0315	-0.0199	-0.0352	0.0434	0.0166	-0.0813	-0.0231	0.0264	0.0192	-0.0122	0.024	-0.0088	-0.0401	0.0152	0.0147	-0.0939	-0.0398	0.0286
COc1cccc(OCCCN)c1-c1cc(Nc2cnc(C#N)cn2)n[nH]1 [Prexasertib] + C=CCn1c(=O)c2cnc(Nc3ccc(N4CCN(C)CC4)cc3)nc2n1-c1cccc(C(C)(C)O)n1 [AZD1775] (first compound max 1 µM, partner max 1 µM)	0.0641	0.0753	0.0418	0.0427	0.0129	-0.0943	0.05	0.0026	0.0621	0.137	0.0551	0.0893	0.0994	0.114	0.035	0.0619	0.0739	0.178	0.0558	0.0311
COc1cccc(OCCCN)c1-c1cc(Nc2cnc(C#N)cn2)n[nH]1 [Prexasertib] + Cc1cc2ncnn2cc1Nc1ncc2c(n1)n(C1CCOCC1)c(=O)n2C [AZD7648] (first compound max 1 µM, 7x7, partner max 10 µM)	-0.0365	-0.009	-0.0006	0.0292	-0.0169	-0.046	0.008	-0.0204	-0.0281	-0.0128	0.0045	-0.0448	0.0025	-0.0041	0.033	0.0078	-0.037	0.0106	-0.045	-0.006
NC1(C(=O)N[C@@H](CCO)c2ccc(Cl)cc2)CCN(c2ncnc3[nH]ccc23)CC1 [Capivasertib] + CC(C)n1c(=O)n(C)c2cnc3cc(F)c(-c4ccc(OCCCN5CCCCC5)nc4)cc3c21 [AZD1390] (first compound max 10 µM, 7x7, partner max 0.3 µM)	-0.055	-0.0671	-0.0825	-0.0871	-0.0826	0.0156	0.0112	-0.0887	-0.0655	-0.0389	-0.086	-0.0571	-0.0336	-0.135	-0.0843	-0.0398	-0.0165	-0.0422	0.0402	-0.0392
CCN(CCO)CCCOc1ccc2c(Nc3cc(CC(=O)Nc4cccc(F)c4)[nH]n3)ncnc2c1 [AZD2811] + C[C@@H]1COCCN1C2=NC(=NC(=C2)C3(CC3)[S@](=N)(=O)C)C4=C5C=CNC5=NC=C4 [AZD6738] (first compound max 1 µM, 7x7, partner max 10 µM)	-0.0087	0.0062	-0.0763	0.0304	-0.0709	-0.0583	-0.0107	-0.0336	-0.0169	-0.0568	-0.0464	-0.0484	0.0067	-0.0518	-0.0575	-0.027	-0.064	-0.0366	-0.0609	-0.0515
CC1(C)CCC(CN2CCN(c3ccc(C(=O)NS(=O)(=O)c4ccc(NCC5CCOCC5)c([N+](=O)[O-])c4)c(Oc4cnc5[nH]ccc5c4)c3)CC2)=C(c2ccc(Cl)cc2)C1 [Venetoclax] + C=CCn1c(=O)c2cnc(Nc3ccc(N4CCN(C)CC4)cc3)nc2n1-c1cccc(C(C)(C)O)n1 [AZD1775] (first compound max 1 µM, partner max 1 µM)	-0.0277	-0.0413	-0.0515	-0.0466	0.0101	0.0035	0.0776	0.0103	-0.0437	0.0452	-0.0309	-0.0071	-0.0886	0.0623	-0.0561	-0.0218	0.012	-0.0553	-0.018	0.0083
CN(CCO)CC[C@H](CSc1ccccc1)Nc1ccc(S(=O)(=O)NC(=O)c2ccc(N3CCC([C@@H](O)c4ccccc4-c4ccc(Cl)cc4)CC3)cc2)cc1S(=O)(=O)C(F)(F)F [AZD4320] + CN(C)CCCOc1ccc(-c2ccc3ncc4c(c3c2)n(C2CCOCC2)c(=O)n4C)cn1 [AZD0156] (first compound max 1 µM, 7x7, partner max 1 µM)	-0.0277	-0.0148	-0.0636	-0.0541	-0.0564	-0.0001	0.0099	0.0174	-0.0601	-0.005	-0.0225	-0.0277	-0.0134	0.0092	-0.0087	-0.0012	0.0312	-0.0308	-0.0158	-0.0045
